Laboratory results from PMC11200585, “Prospects for Prostate Cancer Chemotherapy: Cytotoxic Evaluation and Mechanistic Insights of Quinolinequinones with ADME/PK Profile” (Biomedicines, 2024).

Experiments:
Format in all cases: cell-based, human
[1] = system: HL-60(TB); assay: NCI-60 one-dose screen (leukemia); settings: 10 µM single dose, 48 h
[2] = system: MOLT-4; assay: NCI-60 one-dose screen (leukemia); settings: 10 µM single dose, 48 h
[3] = system: A549/ATCC; assay: NCI-60 one-dose screen (non-small cell lung cancer); settings: 10 µM single dose, 48 h
Method: (§1) The obtained quinolinequinones were submitted to NCI, Bethesda, USA, and, as per standard protocol of NCI, all compounds were evaluated for their antiproliferative activity at single-dose assay (10 µM concentration in DMSO) on a panel of 60 cancer cell lines derived from leukemia, non-small-cell lung, colon, CNS, melanoma, ovarian, renal, prostate, and breast, as per protocol. Tested compounds were added to the microtiter culture plates followed by incubation for 48 h at 37 °C. Sulforhodamine B (SRB), a protein-binding dye, is used for endpoint determination. The percent of the growth of the treated cells was determined in comparison to the untreated control cells and the results of each tested compound were reported. Data from one-dose experiments pertain to the percentage growth at 10 μM [16, 17, 18].

[4] = system: EKVX; assay: as above; settings: 10 µM single dose, 48 h
Method: as §1

[5] = system: HOP-62; assay: as above; settings: 10 µM single dose, 48 h
Method: as §1

[6] = system: HOP-92; assay: as above; settings: 10 µM single dose, 48 h
Method: as §1

[7] = system: NCI-H226; assay: as above; settings: 10 µM single dose
Method: as §1

[8] = system: NCI-H23; assay: as above; settings: 10 µM single dose, 48 h
Method: as §1

[9] = system: NCI-H322M; assay: as above; settings: 10 µM single dose
Method: as §1

[10] = system: NCI-H460; assay: as above; settings: 10 µM single dose
Method: as §1

[11] = system: NCI-H522; assay: as above; settings: 10 µM single dose, 48 h
Method: as §1

[12] = system: HS 578T; assay: NCI-60 one-dose screen (breast cancer); settings: 10 µM single dose
Method: as §1

[13] = system: MDA-MB-468; assay: NCI-60 one-dose screen (breast cancer); settings: 10 µM single dose, 48 h
Method: as §1

[14] = system: T-47D; assay: NCI-60 one-dose screen (breast cancer); settings: 10 µM single dose, 48 h
Method: as §1

[15] = system: CCRF-CEM; assay: NCI-60 five-dose assay (leukemia); settings: 48 h, SRB
[16] = system: HL-60(TB); assay: NCI-60 five-dose assay (leukemia); settings: 48 h, SRB
[17] = system: MOLT-4; assay: NCI-60 five-dose assay (leukemia); settings: 48 h, SRB
[18] = system: EKVX; assay: NCI-60 five-dose assay (non-small cell lung cancer); settings: 48 h, SRB
[19] = system: HOP-62; assay: as above; settings: 48 h, SRB
[20] = system: HCC-2998; assay: NCI-60 five-dose assay (colon cancer); settings: 48 h, SRB
[21] = system: HCT-116; assay: NCI-60 five-dose assay (colon cancer); settings: 48 h, SRB
[22] = system: HT29; assay: NCI-60 five-dose assay (colon cancer); settings: SRB
[23] = system: KM12; assay: NCI-60 five-dose assay (colon cancer); settings: 48 h, SRB
[24] = system: SW-620; assay: NCI-60 five-dose assay (colon cancer); settings: 48 h, SRB
[25] = system: LOX IMVI; assay: NCI-60 five-dose assay (melanoma); settings: 48 h, SRB
[26] = system: SK-MEL-28; assay: NCI-60 five-dose assay (melanoma); settings: 48 h, SRB
[27] = system: OVCAR-4; assay: NCI-60 five-dose assay (ovarian cancer); settings: 48 h, SRB
[28] = system: OVCAR-5; assay: NCI-60 five-dose assay (ovarian cancer); settings: 48 h, SRB
[29] = system: SK-OV-3; assay: NCI-60 five-dose assay (ovarian cancer); settings: 48 h, SRB
[30] = system: A498; assay: NCI-60 five-dose assay (renal cancer); settings: 48 h, SRB
[31] = system: CAKI-1; assay: NCI-60 five-dose assay (renal cancer); settings: 48 h, SRB
[32] = system: PC-3; assay: NCI-60 five-dose assay (prostate cancer); settings: 48 h, SRB
[33] = system: MCF7; assay: NCI-60 five-dose assay (breast cancer); settings: 48 h, SRB
[34] = system: MDA-MB-231/ATCC; assay: NCI-60 five-dose assay (breast cancer); settings: 48 h, SRB
[35] = system: BT-549; assay: NCI-60 five-dose assay (breast cancer); settings: 48 h, SRB
[36] = system: T-47D; assay: NCI-60 five-dose assay (breast cancer); settings: 48 h, SRB
[37] = Homo sapiens, read-out: LC50 (the source's name)

CCOc1ccccc1NC1=C(Cl)C(=O)c2nc(C)ccc2C1=O [AQQ2]
GP (growth percentage) [1]: −36.75%
GP (growth percentage) [2]: −24.89%
GP (growth percentage) [3]: 59.11%
GP (growth percentage) [4]: −2.24%
GP (growth percentage) [5]: 84.25%
GP (growth percentage) [6]: −89.25%
GP (growth percentage) ([7]; 48 h): 17.62%
inhibition at 10 µM ([7]; Homo sapiens): 82.4%
GP (growth percentage) [8]: −67.81%
GP (growth percentage) ([9]; 48 h): 28.84%
inhibition at 10 µM ([9]; Homo sapiens): 71.2%
GP (growth percentage) ([10]; 48 h): 12.07%
inhibition at 10 µM ([10]; Homo sapiens): 87.9%
GP (growth percentage) [11]: −43.48%
GP (growth percentage) ([12]; 48 h): 1.05%
inhibition at 10 µM ([12]; Homo sapiens): 99%
GP (growth percentage) [13]: −90.72%
GP (growth percentage) [14]: −40.00%
TGI [15]: >100 µM
GI50 ([15]; Homo sapiens): 1.41 µM
LC50 (concentration killing 50% of cells) ([15]; Homo sapiens): > 100 µM
TGI [16]: 2.92 µM
GI50 ([16]; Homo sapiens): 1.03 µM
CC50 [16, 37]: 8.29 µM
TGI [17]: 8.09 µM
GI50 ([17]; Homo sapiens): 2.03 µM
LC50 ([17]; Homo sapiens): > 100 µM
TGI [18]: 2.98 µM
GI50 ([18]; Homo sapiens): 1.56 µM
CC50 [18, 37]: 5.7 µM
TGI [19]: 6.74 µM
GI50 ([19]; Homo sapiens): 2.27 µM
LC50 (concentration killing 50% of cells) ([19]; Homo sapiens): 28.8 µM
TGI [20]: 3.52 µM
GI50 ([20]; Homo sapiens): 1.94 µM
LC50 (concentration killing 50% of cells) ([20]; Homo sapiens): 6.39 µM
TGI [21]: 2.31 µM
GI50 ([21]; Homo sapiens): 1.05 µM
LC50 ([21]; Homo sapiens): 5.05 µM
TGI ([22]; 48 h): 15.2 µM
GI50 ([22]; Homo sapiens, HT-29, 48 h): 3.4 µM
LC50 (concentration killing 50% of cells) ([22]; Homo sapiens, HT-29, 48 h): 99.5 µM
TGI [23]: 2.89 µM
GI50 ([23]; Homo sapiens): 1.41 µM
CC50 [23, 37]: 5.92 µM
TGI [24]: 3.21 µM
GI50 ([24]; Homo sapiens): 1.6 µM
LC50 ([24]; Homo sapiens): 6.41 µM
TGI [25]: 2.22 µM
GI50 ([25]; Homo sapiens): 0.839 µM
LC50 (concentration killing 50% of cells) ([25]; Homo sapiens): 5.33 µM
TGI [26]: 3.14 µM
GI50 ([26]; Homo sapiens): 1.71 µM
LC50 ([26]; Homo sapiens): 5.79 µM
TGI [27]: 2.22 µM
GI50 ([27]; Homo sapiens): 1 µM
LC50 (concentration killing 50% of cells) ([27]; Homo sapiens): 4.91 µM
TGI [28]: 3.33 µM
GI50 ([28]; Homo sapiens): 1.84 µM
LC50 (lethal concentration 50%) ([28]; Homo sapiens): 6.03 µM
TGI [29]: 27.1 µM
GI50 ([29]; Homo sapiens): 13.5 µM
LC50 (50% net cell kill) ([29]; Homo sapiens): 54.2 µM
TGI [30]: 10.8 µM
GI50 ([30]; Homo sapiens): 2.65 µM
LC50 ([30]; Homo sapiens): 34.8 µM
TGI [31]: 2.84 µM
GI50 ([31]; Homo sapiens): 1.45 µM
LC50 (lethal concentration, 50% net cell kill) ([31]; Homo sapiens): 5.57 µM
TGI [32]: 2.77 µM
GI50 ([32]; Homo sapiens): 1.26 µM
CC50 [32, 37]: 6.11 µM
TGI [33]: 3.65 µM
GI50 ([33]; Homo sapiens): 1.33 µM
TGI [34]: 2.38 µM
GI50 ([34]; Homo sapiens): 1.07 µM
LC50 (concentration killing 50% of cells) ([34]; Homo sapiens): 5.31 µM
TGI [35]: 2.88 µM
GI50 ([35]; Homo sapiens): 1.52 µM
LC50 (concentration giving 50% net cell kill) ([35]; Homo sapiens): 5.46 µM
TGI [36]: 3.17 µM
GI50 ([36]; Homo sapiens, T47D): 0.467 µM
CC50 ([36]; Homo sapiens, T47D, read-out: LC50 (the source's name)): > 100 µM
